Reference: patent US4127687A, “Prevention of fouling of marine structures such as boat hulls” (Rohm and Haas Company, priority 1976, dated 1978)
In brackets after ≈: the same amount, converted by molar mass. Read-outs that look alike come from different tables or passages of the source.

Assays:
barnacle = experiment: Membrane Diffusion Raft Trials, barnacle control; format: in vivo, barnacles; settings: membrane test, average 15 to 16 weeks of immersion
Excerpt: (§1) 1). FIELD TESTS: - Membrane Diffusion Raft Trials
(§2) A specially constructed raft provides three types
(§3) a). Waterline Well illuminated, aerated
(§4) b). Flats Poorly illuminated deeper
(§5) A known quantity of the test compound is placed into a cylindrical plastic container whose open end is then covered with a membrane of known porosity; the complete unit is attached to the appropriate raft panel so that the poison can freely diffuse into the free water layer around it. Regular inspections, recording time and quantity of settlement, allow a life history of each membrane trial to be constructed. Each raft panel contains 35 compounds to be evaluated together with 4 standard poisons and 1 non-toxic membrane for control.
(§6) The behavior on the raft can thus be compared with that of the standard poisons and the non-toxic control. At normal loading a membrane over the standard poisons would be free from macro-fouling after six months immersion. Compounds showing selective effects against restricted groups of fouling organisms also show up by membrane testing.
(§7) After the completion of membrane tests the contents of all containers are checked visually for poison loss. An empty container indicates an unacceptably high solubility for long term effectiveness; where the poison loss is low the compound is tested in one of two ways depending on its performance against fouling.
(§8) In the membrane tests, the results of approximately 140 compounds evaluated appear in Table 1. The symbols "0" means no detactable effect, the symbol "+" indicates the compound is active against the given fouling organism, and the symbol "++" means that the compound appears to be effective over at least about a four month period for essentially preventing fouling activity by the given organism. In the Table, "weed" designates a grass-like algal growth common in sea water.
(§9) Membrane Test results are of an average 15 to 16 weeks of immersion,
(§10) ^a 0 = none, + = some, + + = effective.
^f The 1975 Spring settlement of barnacles was very meager and the […]

[1] = Water solubility by UV spectrophotometric method; format: physicochemical; settings: water
Experimental: The water solubilities of several isothiazolones were determined by UV spectrophotometric measurements of saturated aqueous solution of each compound in comparison with measurement of solutions of carefully prepared known concentration as outlined in the following example.
DETERMINATION OF SOLUBILITY OF 5-CHLORO-2-(4-FLUOROPHENYL)-4-METHYL-3-ISOTHIAZOLONE OF EXAMPLE 115
A sample of 5-chloro-2-(4-fluorophenyl)-4-methyl-3-isothiazolone (0.0406 g., 1.67 × 10^-4 mole) was dissolved in 50 ml. of methanol. A 5 ml. aliquot of the solution was diluted to 1000 ml. with deionized water, providing a solution of 1.67 × 10^-5 moles/liter concentration. An ultraviolet spectrum of this solution was run using a 10 cm. cell. The absorbance (As) at the wave length of maximum absorption (279 nm.) was 1.208. The molar absorptivity, AM, was calculated from the relationship
where b and c are path length or cell thickness and concentration respectively. Thus, AM was [formula]
Another sample of the compound (0.3-0.5 g.) was stirred vigorously in 40 ml. of deionized water for approximately 72 hrs. to give a saturated solution. The mixture was filtered through very fine filter paper (Whatman No. 50) to remove all suspended solid. Small portions of the filtrate were diluted with water by various factors until an approximately mid-scale absorbance was obtained upon running an ultraviolet spectrum. Such an absorbance was obtained at a dilution of 10. The absorbance was 0.975 in a 10 cm. cell. Using the value for AM obtained earlier, in the equation

weed = experiment: Membrane Diffusion Raft Trials, weed control; format: in vivo, grass-like algal growth common in sea water; settings: membrane test, average 15 to 16 weeks of immersion
Excerpt: as §1, §2, §3, §4, §5, §6, §7, §8, §9, §10

Enteromorpha spores = experiment: Laboratory toxicity test (Lab Bioassay) with Enteromorpha spores; format: in vivo; settings: using Enteromorpha spores
Excerpt: Standard laboratory toxicity tests use Enteromorpha spores (zoospores or gametes) but Ectocarpus spores and barnacle nauplii may also be used. During the spore tests additional information on the control of bacterial and diatom slimes becomes available since these organisms are unavoidably introduced with the spore inoculum.
More detailed laboratory toxicity tests on promising compounds determine LD50 values as percentage saturated solution.
^c Using Enteromorpha spores.

[2] = Amount of toxicant remaining in the test container after membrane diffusion raft tests; format: physicochemical; design: key: 0: empty or trace; +: some; + +: ample; settings: after completion of membrane diffusion raft tests
Excerpt: as §5, §7
^b Amount of toxicants remaining in the test container after the
completion of the membrane diffusion raft tests: 0 = empty or trace, + =

[3] = saturated solution, Table 1, read-out: Solubility by UV method

SMILES	Barnacle Control (barnacle)	Solubility by UV method: rapidly decomposes (remark) ([1]; Table 1 solubility column)	Weed Control (weed)	Lab Bioassay LD50 (Enteromorpha spores)	Contents at the end of test (amount of toxicants remaining in the test container) [2]	solubility [1, 3]	solubility [1]
COc1c(Cl)cccc1-n1sc(Cl)c(Cl)c1=O [Example 79]	+	rapidly decomposes	+ +	0.065 percentage saturated solution	+ +		
O=c1c(Br)csn1Cc1ccc(Cl)cc1 [Example 53]	+		+ +	0.1 percentage saturated solution	+ +	18 µg/mL (≈ 59.1 µM)	
CCCCC(CC)Cn1sc(Cl)cc1=O (stereo not shown) [Example 17]	+ +		+ +	.013 percentage saturated solution	0	135 µg/mL (≈ 545 µM)	
COc1c(Cl)cccc1-n1sc(Cl)cc1=O [Example 42]	+		+ +	0.03 percentage saturated solution	+ +	45 µg/mL (≈ 163 µM)	
O=c1c(Br)c(Br)sn1C1CCCCC1 [Example 98]	0		+ +	0.02 percentage saturated solution	+	6.4 µg/mL (≈ 18.8 µM)	
O=c1c(Cl)c(Cl)sn1CCc1ccccc1 [Example 69]	0		+ +	0.01 percentage saturated solution	+ +	22 µg/mL (≈ 80.2 µM)	
O=c1c(Cl)c(Cl)sn1Cc1ccc(Cl)cc1 [Example 72]	+		+ +	0.015 percentage saturated solution	+ +	11 µg/mL (≈ 37.3 µM)	
O=c1c(Cl)c(Cl)sn1Cc1ccccc1 [Example 71]	+ +		+ +	0.25 percentage saturated solution	+	52 µg/mL (≈ 200 µM)	
O=c1c(Br)c(Br)sn1Cc1ccc(Cl)cc1 [Example 99]	+		+ +	0.01 percentage saturated solution	+ +	1.7 µg/mL (≈ 4.43 µM)	
CCOC(=O)c1ccc(-n2sc(Cl)c(C)c2=O)cc1 [Example 126]	+ +		+	0.13 percentage saturated solution	+ +		
O=c1cc(Cl)sn1Cc1ccc(Cl)cc1 [Example 32]	+		+ +	0.018 percentage saturated solution	+ +	70 µg/mL (≈ 269 µM)	
CCCCCCCCCCCCCCCCCCn1sc(Cl)cc1=O [Example 26]	0		0	1.0 percentage saturated solution	+ +		
O=c1cc(Cl)sn1-c1ccc(Br)cc1 [Example 35]	0		+ +	0.22 percentage saturated solution	+ +		
O=c1c(Br)c(Cl)sn1-c1ccc(Cl)cc1 [Example 93]	+ +		+ +	0.012 percentage saturated solution	+ +	1.72 µg/mL (≈ 5.29 µM)	
CCCCCCCCCCCCn1sc(Cl)cc1=O [Example 23]	+		+ +	0.02 percentage saturated solution	+	0.7 to 1.5 µg/mL (≈ 2.3 to 4.94 µM)	
Cc1c(Cl)sn(CCc2ccccc2)c1=O [Example 108]	+ +		0	> 1 percentage saturated solution	+	155 µg/mL (≈ 611 µM)	
O=c1c(Br)csn1C1CCCCC1 [Example 51]	+		+ +	0.01 percentage saturated solution	+	143 µg/mL (≈ 545 µM)	
O=c1cc(Cl)sn1-c1ccc(I)cc1 [Example 36]	0		+ +	0.08 percentage saturated solution	+ +		
O=c1cc(Cl)sn1-c1ccc(Oc2ccccc2)cc1 [Example 39]	+ +		0	0.6 percentage saturated solution	+ +		
Cc1c(Cl)cccc1-n1sc(Cl)c(Cl)c1=O [Example 78]	0		+ +	0.08 percentage saturated solution	+	3.7 µg/mL (≈ 12.6 µM)	
O=c1c(Cl)c(Cl)sn1C1CCCCC1 [Example 67]	+ +		+ +	0.3 percentage saturated solution	+		48 µg/mL (≈ 190 µM)
COc1cc(Cl)ccc1-n1sc(Cl)cc1=O [Example 41]	+		+ +	0.03 percentage saturated solution	+ +	55 µg/mL (≈ 199 µM)	
Cc1ccc(-n2sc(Cl)c(C)c2=O)cc1C [Example 122]	+ +		+ +	0.01 percentage saturated solution	+ +		
O=c1c(Cl)c(Cl)sn1-c1ccccc1 [Example 74]	+ +		+ +	0.03 percentage saturated solution	+ +	8 µg/mL (≈ 32.5 µM)	
CCCCCCCCCCn1scc(Br)c1=O [Example 49]	0		+ +	0.01 percentage saturated solution	+		
CCCCCCCCCCCCCCn1sccc1=O [Example 7]	0		0	0.1 percentage saturated solution	+ +		
Cc1c(Cl)sn(-c2ccc(I)cc2)c1=O [Example 117]	+ +		+	0.2 percentage saturated solution	+ +		
Cc1cccc(-n2sc(Cl)c(C)c2=O)c1 [Example 119]	0		+ +	0.1 percentage saturated solution	+ +		
